The test system of data set [1] is Eμ-Myc driven lymphoma. On the set-up: method as in PMID 22120667. The following applies: 5mg/kg × 9 days; cited from earlier work.
The target in data set [2] is CDK1 (Homo sapiens, UniProt P06493). Kind of data set: CDK1 kinase IC50 determination (DELFIA / 33P radiometric). In kind it is biochemical. The procedure: (§1) Other kinase IC50 determinations for CHK2 and FLT3 were performed using a commercial assay (Z'-Lyte, Invitrogen) or in-house with recombinant human CHK1 on a LabChip® EZ Reader II (PerkinElmer) or CDK1 in a DELFIA assay (PerkinElmer).
Chain of CDK1 (P06493 whole entry): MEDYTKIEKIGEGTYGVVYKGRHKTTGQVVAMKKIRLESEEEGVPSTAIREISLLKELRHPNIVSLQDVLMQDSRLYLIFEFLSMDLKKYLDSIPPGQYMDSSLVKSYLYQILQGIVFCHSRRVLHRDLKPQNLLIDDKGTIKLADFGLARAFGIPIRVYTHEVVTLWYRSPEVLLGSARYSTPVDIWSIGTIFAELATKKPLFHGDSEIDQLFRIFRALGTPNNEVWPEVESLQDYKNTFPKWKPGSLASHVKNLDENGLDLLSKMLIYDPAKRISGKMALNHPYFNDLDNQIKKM
Chain of CDK1 (P14635 whole entry partner): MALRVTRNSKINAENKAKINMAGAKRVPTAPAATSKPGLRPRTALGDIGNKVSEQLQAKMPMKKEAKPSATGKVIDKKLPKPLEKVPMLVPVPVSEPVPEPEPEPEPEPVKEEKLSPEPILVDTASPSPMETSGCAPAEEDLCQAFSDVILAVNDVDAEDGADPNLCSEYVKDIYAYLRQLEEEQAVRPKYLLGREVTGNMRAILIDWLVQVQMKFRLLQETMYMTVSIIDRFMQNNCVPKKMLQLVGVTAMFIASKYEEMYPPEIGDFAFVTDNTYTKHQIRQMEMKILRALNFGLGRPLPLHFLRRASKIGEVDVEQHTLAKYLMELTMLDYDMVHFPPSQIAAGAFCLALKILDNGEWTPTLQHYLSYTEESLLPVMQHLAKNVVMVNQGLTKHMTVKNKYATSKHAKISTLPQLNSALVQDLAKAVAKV

The target in data set [3] is T1, CHK2 (Homo sapiens, UniProt O96017).
T1 construct: purchased Invitrogen
T1 sequence (O96017 whole entry): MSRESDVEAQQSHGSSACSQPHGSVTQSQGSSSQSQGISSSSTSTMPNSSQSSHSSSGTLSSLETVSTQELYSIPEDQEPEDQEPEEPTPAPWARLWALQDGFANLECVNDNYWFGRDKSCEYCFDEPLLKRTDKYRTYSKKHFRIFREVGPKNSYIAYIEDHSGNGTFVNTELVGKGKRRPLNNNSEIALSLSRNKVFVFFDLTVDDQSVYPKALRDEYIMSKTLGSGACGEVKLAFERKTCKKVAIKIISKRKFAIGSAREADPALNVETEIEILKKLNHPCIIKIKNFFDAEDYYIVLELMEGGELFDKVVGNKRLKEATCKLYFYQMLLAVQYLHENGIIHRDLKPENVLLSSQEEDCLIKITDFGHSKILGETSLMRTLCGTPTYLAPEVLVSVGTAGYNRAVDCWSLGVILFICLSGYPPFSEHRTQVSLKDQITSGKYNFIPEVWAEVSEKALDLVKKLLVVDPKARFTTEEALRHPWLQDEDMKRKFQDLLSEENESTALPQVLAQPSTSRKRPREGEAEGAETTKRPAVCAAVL
Kind of data set: CHK2 kinase IC50 determination (Z'-Lyte). It is filed as biochemical. As for the experimental part: as §1

Data set [4] relates to 124 human kinases. Put plainly: 33P radiometric kinase profiling. Particulars: 10μM, 124 kinases, ATP at Km. In kind it is biochemical.
The subject of data set [5] is Calu6. Put plainly: Mitosis induction assay (MIA), abrogation of etoposide-induced G2 checkpoint. It is filed as cell-based. The following applies: Homo sapiens, Calu-6, mean±SD. The procedure: (§2) Assays were performed as described. […] Inhibition of intracellular CHK1 activity was measured using a cell based ELISA for the abrogation of an etoposide induced G2 checkpoint (mitosis induction assay, MIA [24]). The IC50 for G2 checkpoint abrogation (MIA) was determined in the presence of nocodazole using UCN01 as a positive control. […] PI values > 1 indicate potentiation of the genotoxic activity.

Data set [6] has as its system HT29. The description is as above. It is filed as cell-based. Particulars: Homo sapiens, HT-29, mean±SD. The procedure: as §2
In data set [7] the test system is SW620. The description is as above. In kind it is cell-based. The following applies: Homo sapiens, SW-620, mean±SD. As for the experimental part: as §2
In data set [8] the test system is cellular CHK1 activity, four cell lines. Put plainly: MIA, range over four cell lines. It is filed as cell-based. Particulars: Homo sapiens, read-out: IC50 for cellular CHK1 inhibition (MIA), range. The procedure: as §2
Data set [9] deals with four human tumor cell lines. Kind of data set: SRB cytotoxicity, range over four cell lines. Particulars: read-out: GI50 single-agent, range. It is filed as cell-based.
The test system of data set [10] is pS296 CHK1 in HT29 colon tumor cells. Kind of data set: Western blot of gemcitabine-induced biomarkers in cells. It is filed as cell-based, human. Particulars: added to gemcitabine. As for the experimental part: (§3) Western blotting was carried out as described. ELISA assays for pS296 CHK1 and total CHK1 were developed and validated for use in vitro and in tumor homogenates. Tumor samples for ELISA and western blotting were lysed in CHAPS buffer (1% CHAPS in 150mM NaCl, 50mM Tris-HCl pH 8.0, 1mM EDTA, 0.2mM PMSF and 1:50 Sigma Phosphatase inhibitors 2 and 3 and 1:100 Sigma protease cocktail) and immunoblotted. ELISA assays were based on commercially available kits with modifications (Cell Signalling Technologies). For pS296 CHK1 detection the commercial pS317 CHK1 antibody was replaced with a pS296 CHK1 antibody (Cell Signalling Technology). Xenograft tumor homogenate was added in duplicate to 96 well plates (100μl containing 40ug protein) and quantification of the colorimetric readout was determined at 450nm using a PerkinElmer 2103 EnVision Multilabel plate reader.

For data set [11], the system named is HT29 colon carcinoma cells. Kind of data set: Cell cycle analysis (BrdU/PI). It is filed as cell-based, human. The source says: Cell cycle analysis using propidium iodide and bromodeoxyuridine staining was as described.
The nature of data set [12]: Pharmacokinetics in BALB/c mice. In kind it is in vivo. Particulars: for bioavailability: BALB/c, 10mg/kg p.o. vs i.v., read-out: oral bioavailability (F). As for the experimental part:
(§4) Human tumor xenografts were established s.c. in female […]) athymic mice and treated as previously described. […] Compounds were extracted from whole blood, plasma and tissue homogenates with methanol-containing internal standards using established protocols. Drug concentrations were determined using liquid chromatography/tandem mass spectrometry (LC/MS-MS) and pharmacokinetics were calculated using Pharsight WinNonLin software (version 5.2.1) as previously described.

Data set [13] can be described thus: Plasma protein binding. It is filed as in vitro ADME. The following applies: mouse, nude mice.
Data set [14] in a line: Permeability across CaCo2 cell monolayer. In kind it is in vitro ADME. Background: Caco-2 monolayers are a common model of the intestinal barrier.
Data set [15] can be described thus: Tumor drug concentration in HT29 xenografts. In kind it is in vivo, mice. The following applies: female, CRTac:Ncr-Fox1(nu) athymic, mouse, oral, 24h following 12.5mg/kg p.o., with gemcitabine. As for the experimental part: as §4
The test system of data set [16] is pS296 CHK1 in HT29 tumor xenografts. Put plainly: PK-PD biomarker study in HT29 tumor xenografts. It is filed as in vivo, mice. Particulars: 50 or 100mg/kg p.o. 24h after gemcitabine 100mg/kg i.v.; P < 0.05. As for the experimental part:
as §3

The subject of data set [17] is HT29 human colon tumor xenografts. Kind of data set: Antitumor study, HT29 human colon tumor xenografts. The following applies: HT29. The procedure: (§5) Compound tolerability and pharmacokinetic investigations were carried out in female BALB/c mice (Charles River). Human tumor xenografts were established s.c. in female CRTac:Ncr-Fox1(nu) athymic mice and treated as previously described. […] Initial treatment groups contained from 6 to 10 mice and animals were inspected daily and tumor size and volume measured every 2 or 3 days. Tumor volume and growth delay were determined as previously described.

Data set [18] deals with SW620 colon cancer xenografts. Put plainly: Antitumor study, SW620 colon cancer xenografts. It is filed as in vivo, mice. As for the experimental part:
as §5

Data set [19] relates to Calu6 RAS mutant NSCLC human tumor xenograft. Put plainly: Antitumor study, Calu6 RAS mutant NSCLC xenografts. In kind it is in vivo, mice.
Procedure: Compound tolerability and pharmacokinetic investigations were carried out in female BALB/c mice (Charles River). Human tumor xenografts were established s.c. in female CRTac:Ncr-Fox1(nu) athymic mice and treated as previously described [24, 28]. […] Initial treatment groups contained from 6 to 10 mice and animals were inspected daily and tumor size and volume measured every 2 or 3 days. Tumor volume and growth delay were determined as previously described [28].
The test system of data set [20] is pS296 CHK1 in Calu6 xenograft tumors. Kind of data set: PD biomarkers in Calu6 xenograft tumors (western blot). Particulars: Calu6 xenografts, 6h after last dose of CCT245737 150mg/kg p.o. It is filed as in vivo, mice. The procedure:
as §3
For orientation: In western blotting, separated proteins are transferred to a membrane and probed.

In data set [21] the test system is Eμ-Myc driven B-cell lymphoma. Put plainly: Eμ-Myc driven transgenic mouse transplant model of B-cell lymphoma. In kind it is in vivo, mice. The following applies: 150mg/kg p.o. once daily for 9 days. The source says: Transgenic Eμ-Myc mice which develop aggressive infiltrating lymphoma were established and monitored as previously described. To generate transgenic Eμ-Myc driven lymphoma allografts, tumor cells from 3 separate tumors were harvested, cells counted and injected via a tail vein. Six mice were set up per tumor to provide 3 control and 3 treated animals, giving a maximum of 9 mice per treatment group. Animals were monitored daily and continuously using RFID transponders to measure temperature, activity and water consumption as previously described. […] Bone marrow cellularity was also determined to check for tumor cell involvement. All mice were handled in compliance with local and national animal welfare guidelines.

A short description of data set [22]: Antitumor study, HT29 human colon tumor xenografts. Particulars: female, mouse, in vivo, iv. As for the experimental part:
as §5

Molecules are shown by their SMILES. Read-outs that look alike come from different tables or passages of the source.

Regarding `CN[C@@H]1C[C@H]2O[C@@](C)([C@@H]1OC)n1c3ccccc3c3c4c(c5c6ccccc6n2c5c31)C(=O)N[C@H]4O` [UCN01], in data set [1], the “antitumor activity in Eμ-Myc model” value is recorded as “clear evidence of tumor growth inhibition” and the blood cell count entry is recorded as “decreased blood cell count”.

What is called IC50 is the concentration that gives 50% inhibition. A word on the GI50: it is the concentration at which growth is held to half of that of the control. Broadly, the half-life is the time needed for the level to fall by half in the phase considered. A low value points to fast loss. The fraction unbound is the share of the substance not bound to proteins or other matrix. A higher fraction unbound goes with weak binding. For `N#Cc1cnc(Nc2cc(NC[C@H]3CNCCO3)c(C(F)(F)F)cn2)cn1` [CCT245737, (R)-5-((4-((morpholin-2-ylmethyl)amino)-5-(trifluoromethyl)pyridin-2-yl)amino)pyrazine-2-carbonitrile], the IC50 in data set [2] is 1.26 to 2.44 µM; in [3], 9.03 µM; in data set [5], 0.084 ± 0.007 µM; in data set [6], 0.03 ± 0.012 µM; in data set [7], 0.22 ± 0.047 µM; in [8], 0.03 to 0.22 µM. Moreover, the “number of kinases (including CHK1) with > 80% inhibition” value in data set [4] was 12 kinases. In addition, the GI50 in data set [9] fell in the range of 0.41 to 5.4 µM. The “concentration causing marked loss of pS296 signal” value in data set [10] is given as at least 0.5 μM. Besides, the “concentration giving complete inhibition of pS296 signal” value in data set [10] was at least 2 μM. For the same compound, the “effect on etoposide-induced G2/M block” value in data set [11] (after etoposide 50μM × 1h, increasing concentrations, 24h) is “abrogated this G2/M block”. Further, in data set [11] (up to 0.5μM for 24h), the “effect on cell cycle distribution, alone” value is on record as “minimal effects”. Also, in [12] (BALB/c mice), the “kinetics in whole blood (AUC vs dose)” value is given as “linear kinetics”. This compound returned a plasma clearance in data set [12] (BALB/c mice, 10mg/kg i.v.) of 35 mL/min/kg. In data set [12] (BALB/c mice, 10mg/kg i.v.), this compound returned a volume of distribution of 0.19 L. The compound also came in with a half-life in data set [12] (BALB/c mice, 10mg/kg i.v., plasma) of 2.86 h. Also, the bioavailability came out at 100% in data set [12] (female, plasma, oral, mouse) and 105% in [12] (female, plasma, po, mouse). In addition, the Kp in data set [12] (female, mouse, spleen, other: both routes of administration (i.v. and p.o.), 10 mg/kg, BALB/c mice, both routes of administration, read-out: spleen concentration relative to plasma) fell in the range of 10 to 25. The same compound had a fraction unbound at 10 μM in data set [13] of 0.244. In addition, the Papp in [14] (human, Caco-2, CaCo2 cell monolayer, read-out: cell permeability Pe) turned out to be 25 ×10⁻⁶ cm/s. Further, the “active efflux by PGP” value in data set [14] (no asymmetry apical > basal or basal > apical) is given as “not a substrate for active efflux by PGP”. The compound also registered a concentration at 24 h in [15] of at least 3000 nM. For the same compound, the “gemcitabine-induced pS296 CHK1 signal in tumor” value in [16] was “significantly reduced”. Further, the growth delay amounted to 1.0 ± 1.0 days in data set [17] (alone, 150mg/kg p.o. days 1,2,5,6,9,10 (irinotecan study), mean±SD) and 0.3 ± 3.4 days in [17] (alone, 150mg/kg p.o. days 1,2,8,9,15,16, mean±SD). The body weight loss in data set [18] (combination with gemcitabine, day 9) was determined as 4.3%. Also, the “increase in tumor growth delay” value in data set [19] (CCT245737 150mg/kg p.o. added to gemcitabine 100mg/kg i.v. + carboplatin 5mg/kg i.p., P < 0.001) is 9 days. In [19] (combination with gemcitabine + carboplatin, nadir on day 3), the weight loss was 2%. The “gemcitabine + carboplatin induced pS296 CHK1 signal in tumor” value in [20] is reported as “completely abolished”. Moreover, the “effects on normal tissues (lung, bone marrow, kidney)” value in data set [21] is reported as “minimal effects”. In addition, in data set [21], the “tolerability (body weights)” value is on record as “well tolerated”. For the same compound, in [21] (P < 0.05), the “weight of inguinal, brachial/axillary and mesenteric lymph nodes vs vehicle” value was “significantly reduced”. Also, in data set [21] (p < 0.01), the spleen weight result was “increased significantly”.

As for `CCc1c2c(nc3ccc(OC(=O)N4CCC(N5CCCCC5)CC4)cc13)-c1cc3c(c(=O)n1C2)COC(=O)[C@]3(O)CC` [irinotecan], the growth delay in data set [17] (alone, 25mg/kg i.p. days 0,4,8, mean±SD, n = 6) worked out at 6.2 ± 4.6 days.

For `Nc1ccn([C@@H]2O[C@H](CO)[C@@H](O)C2(F)F)c(=O)n1` [gemcitabine], the MTD in data set [22] is 200 mg/kg. Also, the growth delay is -0.6 ± 2.7 days in [17] (alone, 100mg/kg i.v. days 0,7,14, mean±SD (Figure 3A)); 6 days in data set [17] (gemcitabine alone at the MTD of 200mg/kg i.v. (Figure 3B)); 3 days in data set [17] (gemcitabine alone, fixed dose 100mg/kg i.v. (Figure 3B)); 1.5 ± 2.3 days in [18] (gemcitabine alone 100mg/kg i.v. days 0,4,8).

Values taken from paper PMC4823038 (Oncotarget, 2015).
